Experimental data taken from article PMC10470909, “cis-Decalin-containing tetramic acids as inhibitors of insect steroidogenic glutathione S-transferase Noppera-bo” (PLOS ONE, 2023).

test system: Aspergillus fumigatus Af293; assay: Antimicrobial assay, A. fumigatus; assay type: cell-based; conditions: Aspergillus fumigatus Af293; read-out: Antimicrobial activity (IC50, μM) Af

Row | SMILES | IC50 [µM]
1 | C/C=C/[C@@H]1C=C[C@@H]2C[C@H](C)CC[C@H]2[C@]1(C)C(=O)C1=C(O)[C@H](CO)N(C)C1=O [Compound 1, equisetin] | 29
2 | C/C=C/[C@H]1C=C[C@H]2C[C@H](C)CC[C@H]2[C@]1(C)C(=O)C1=C(O)[C@H](CO)N(C)C1=O [Compound 3, cis-equisetin] | 40

same assay, conditions: Aspergillus fumigatus, AF293, read-out: Antimicrobial activity (IC50, μM) Af

Row | SMILES | IC50 [µM]
3 | C/C=C/C=C/[C@H]1C(C)=C[C@H]2C[C@@H](C)CC[C@@H]2[C@@]1(C)C(=O)C1=C(O)[C@@H](CO)N(C)C1=O [Compound 2, phomasetin] | 21
4 | C/C=C/C=C/[C@@H]1C(C)=C[C@@H]2C[C@@H](C)CC[C@@H]2[C@@]1(C)C(=O)C1=C(O)[C@@H](CO)NC1=O [Compound 4, N-demethyl-cis-phomasetin] | 58

test system: HIV-1 integrase; assay: not given; set-up: method as in earlier work; conditions: cited from earlier work

Row | SMILES | HIV-1 integrase inhibitory activity (in words)
5 | C/C=C/[C@@H]1C=C[C@@H]2C[C@H](C)CC[C@H]2[C@]1(C)C(=O)C1=C(O)[C@H](CO)N(C)C1=O [Compound 1, equisetin] | inhibit HIV-1 integrase activity approximately equally
6 | C/C=C/C=C/[C@H]1C(C)=C[C@H]2C[C@@H](C)CC[C@@H]2[C@@]1(C)C(=O)C1=C(O)[C@@H](CO)N(C)C1=O [Compound 2, phomasetin] | inhibit HIV-1 integrase activity approximately equally

test system: Pyricularia oryzae kita-1; assay: microbe, parasite or virus in culture; assay type: cell-based; conditions: Pyricularia oryzae, KITA1, read-out: Antimicrobial activity (IC50, μM) Po

Row | SMILES | IC50 [µM]
7 | C/C=C/[C@@H]1C=C[C@@H]2C[C@H](C)CC[C@H]2[C@]1(C)C(=O)C1=C(O)[C@H](CO)N(C)C1=O [Compound 1, equisetin] | 0.15
8 | C/C=C/C=C/[C@H]1C(C)=C[C@H]2C[C@@H](C)CC[C@@H]2[C@@]1(C)C(=O)C1=C(O)[C@@H](CO)N(C)C1=O [Compound 2, phomasetin] | 0.044
9 | C/C=C/[C@H]1C=C[C@H]2C[C@H](C)CC[C@H]2[C@]1(C)C(=O)C1=C(O)[C@H](CO)N(C)C1=O [Compound 3, cis-equisetin] | 0.46
10 | C/C=C/C=C/[C@@H]1C(C)=C[C@@H]2C[C@@H](C)CC[C@@H]2[C@@]1(C)C(=O)C1=C(O)[C@@H](CO)NC1=O [Compound 4, N-demethyl-cis-phomasetin] | 2

same assay, conditions: growth inhibitory activity against P. oryzae, relative to 1

Row | SMILES | fold lower activity compared with that of 1, P. oryzae [fold]
11 | C/C=C/[C@H]1C=C[C@H]2C[C@H](C)CC[C@H]2[C@]1(C)C(=O)C1=C(O)[C@H](CO)N(C)C1=O [Compound 3, cis-equisetin] | 3

test system: Candida albicans JCM1542; assay: Antimicrobial assay, C. albicans; assay type: cell-based; conditions: Candida albicans JCM1542; read-out: Antimicrobial activity (IC50, μM) Ca

Row | SMILES | IC50 [µM]
12 | C/C=C/[C@@H]1C=C[C@@H]2C[C@H](C)CC[C@H]2[C@]1(C)C(=O)C1=C(O)[C@H](CO)N(C)C1=O [Compound 1, equisetin] | 29
13 | C/C=C/[C@H]1C=C[C@H]2C[C@H](C)CC[C@H]2[C@]1(C)C(=O)C1=C(O)[C@H](CO)N(C)C1=O [Compound 3, cis-equisetin] | 40

same assay, conditions: Candida albicans, JCM1542, read-out: Antimicrobial activity (IC50, μM) Ca

Row | SMILES | IC50 [µM]
14 | C/C=C/C=C/[C@H]1C(C)=C[C@H]2C[C@@H](C)CC[C@@H]2[C@@]1(C)C(=O)C1=C(O)[C@@H](CO)N(C)C1=O [Compound 2, phomasetin] | 21
15 | C/C=C/C=C/[C@@H]1C(C)=C[C@@H]2C[C@@H](C)CC[C@@H]2[C@@]1(C)C(=O)C1=C(O)[C@@H](CO)NC1=O [Compound 4, N-demethyl-cis-phomasetin] | 9

test system: Plasmodium falciparum 3D7; assay: Antimalarial assay, P. falciparum; assay type: cell-based; conditions: Plasmodium falciparum 3D7; read-out: Antimicrobial activity (IC50, μM) Pf

Row | SMILES | IC50 [µM]
16 | C/C=C/[C@@H]1C=C[C@@H]2C[C@H](C)CC[C@H]2[C@]1(C)C(=O)C1=C(O)[C@H](CO)N(C)C1=O [Compound 1, equisetin] | 12
17 | C/C=C/[C@H]1C=C[C@H]2C[C@H](C)CC[C@H]2[C@]1(C)C(=O)C1=C(O)[C@H](CO)N(C)C1=O [Compound 3, cis-equisetin] | 13

same assay, conditions: Plasmodium falciparum, 3D7, read-out: Antimicrobial activity (IC50, μM) Pf

Row | SMILES | IC50 [µM]
18 | C/C=C/C=C/[C@H]1C(C)=C[C@H]2C[C@@H](C)CC[C@@H]2[C@@]1(C)C(=O)C1=C(O)[C@@H](CO)N(C)C1=O [Compound 2, phomasetin] | 1.8
19 | C/C=C/C=C/[C@@H]1C(C)=C[C@@H]2C[C@@H](C)CC[C@@H]2[C@@]1(C)C(=O)C1=C(O)[C@@H](CO)NC1=O [Compound 4, N-demethyl-cis-phomasetin] | 13

test system: not listed separately; assay: In vitro cytotoxicity, HeLa; assay type: cell-based, human; conditions: human, HeLa cells (human cervical epidermoid carcinoma cell line)
Description: (§1) In vitro cytotoxicity and antimicrobial assays were conducted as previously reported.

Row | SMILES | IC50 [µM]
20 | C/C=C/[C@@H]1C=C[C@@H]2C[C@H](C)CC[C@H]2[C@]1(C)C(=O)C1=C(O)[C@H](CO)N(C)C1=O [Compound 1, equisetin] | 35
21 | C/C=C/C=C/[C@H]1C(C)=C[C@H]2C[C@@H](C)CC[C@@H]2[C@@]1(C)C(=O)C1=C(O)[C@@H](CO)N(C)C1=O [Compound 2, phomasetin] | 6.1
22 | C/C=C/[C@H]1C=C[C@H]2C[C@H](C)CC[C@H]2[C@]1(C)C(=O)C1=C(O)[C@H](CO)N(C)C1=O [Compound 3, cis-equisetin] | 46
23 | C/C=C/C=C/[C@@H]1C(C)=C[C@@H]2C[C@@H](C)CC[C@@H]2[C@@]1(C)C(=O)C1=C(O)[C@@H](CO)NC1=O [Compound 4, N-demethyl-cis-phomasetin] | > 75

test system: HeLa, human cervical epidermoid carcinoma cell line; assay: In vitro cytotoxicity, HeLa; assay type: cell-based; conditions: HeLa cells
Description: as §1

Row | SMILES | cytotoxicity against HeLa (in words)
24 | C/C=C/C=C/[C@@H]1C(C)=C[C@@H]2C[C@@H](C)CC[C@@H]2[C@@]1(C)C(=O)C1=C(O)[C@@H](CO)NC1=O [Compound 4, N-demethyl-cis-phomasetin] | no cytotoxicity

test system: Escherichia coli HO141; assay: Antimicrobial assay, E. coli; assay type: cell-based; conditions: Escherichia coli HO141; read-out: Antimicrobial activity (IC50, μM) Ec

Row | SMILES | IC50 [µM]
25 | C/C=C/[C@@H]1C=C[C@@H]2C[C@H](C)CC[C@H]2[C@]1(C)C(=O)C1=C(O)[C@H](CO)N(C)C1=O [Compound 1, equisetin] | 13
26 | C/C=C/[C@H]1C=C[C@H]2C[C@H](C)CC[C@H]2[C@]1(C)C(=O)C1=C(O)[C@H](CO)N(C)C1=O [Compound 3, cis-equisetin] | 20

same assay, conditions: Escherichia coli, HO141, read-out: Antimicrobial activity (IC50, μM) Ec

Row | SMILES | IC50 [µM]
27 | C/C=C/C=C/[C@H]1C(C)=C[C@H]2C[C@@H](C)CC[C@@H]2[C@@]1(C)C(=O)C1=C(O)[C@@H](CO)N(C)C1=O [Compound 2, phomasetin] | 1.3
28 | C/C=C/C=C/[C@@H]1C(C)=C[C@@H]2C[C@@H](C)CC[C@@H]2[C@@]1(C)C(=O)C1=C(O)[C@@H](CO)NC1=O [Compound 4, N-demethyl-cis-phomasetin] | 1.5

test system: not listed separately; assay: In vitro cytotoxicity, src^ts-NRK; assay type: cell-based, rat; conditions: rat; src^ts-NRK cells
Description: as §1

Row | SMILES | IC50 [µM]
29 | C/C=C/[C@@H]1C=C[C@@H]2C[C@H](C)CC[C@H]2[C@]1(C)C(=O)C1=C(O)[C@H](CO)N(C)C1=O [Compound 1, equisetin] | 20
30 | C/C=C/C=C/[C@H]1C(C)=C[C@H]2C[C@@H](C)CC[C@@H]2[C@@]1(C)C(=O)C1=C(O)[C@@H](CO)N(C)C1=O [Compound 2, phomasetin] | 11
31 | C/C=C/[C@H]1C=C[C@H]2C[C@H](C)CC[C@H]2[C@]1(C)C(=O)C1=C(O)[C@H](CO)N(C)C1=O [Compound 3, cis-equisetin] | 35
32 | C/C=C/C=C/[C@@H]1C(C)=C[C@@H]2C[C@@H](C)CC[C@@H]2[C@@]1(C)C(=O)C1=C(O)[C@@H](CO)NC1=O [Compound 4, N-demethyl-cis-phomasetin] | > 75

test system: src^ts-NRK, normal rat kidney cells infected with ts25; assay: In vitro cytotoxicity, src^ts-NRK; assay type: cell-based; conditions: not given
Description: as §1

Row | SMILES | cytotoxicity against src^ts-NRK (in words)
33 | C/C=C/C=C/[C@@H]1C(C)=C[C@@H]2C[C@@H](C)CC[C@@H]2[C@@]1(C)C(=O)C1=C(O)[C@@H](CO)NC1=O [Compound 4, N-demethyl-cis-phomasetin] | no cytotoxicity

test system: Staphylococcus aureus 209; assay: Antimicrobial assay, S. aureus; assay type: cell-based; conditions: Staphylococcus aureus 209; read-out: Antimicrobial activity (IC50, μM) Sa

Row | SMILES | IC50 [µM]
34 | C/C=C/[C@@H]1C=C[C@@H]2C[C@H](C)CC[C@H]2[C@]1(C)C(=O)C1=C(O)[C@H](CO)N(C)C1=O [Compound 1, equisetin] | 1.4
35 | C/C=C/[C@H]1C=C[C@H]2C[C@H](C)CC[C@H]2[C@]1(C)C(=O)C1=C(O)[C@H](CO)N(C)C1=O [Compound 3, cis-equisetin] | 5.6

same assay, conditions: Staphylococcus aureus, 209, read-out: Antimicrobial activity (IC50, μM) Sa

Row | SMILES | IC50 [µM]
36 | C/C=C/C=C/[C@H]1C(C)=C[C@H]2C[C@@H](C)CC[C@@H]2[C@@]1(C)C(=O)C1=C(O)[C@@H](CO)N(C)C1=O [Compound 2, phomasetin] | 0.14
37 | C/C=C/C=C/[C@@H]1C(C)=C[C@@H]2C[C@@H](C)CC[C@@H]2[C@@]1(C)C(=O)C1=C(O)[C@@H](CO)NC1=O [Compound 4, N-demethyl-cis-phomasetin] | 6

same assay, conditions: growth inhibitory activity against S. aureus, relative to 1

Row | SMILES | fold lower activity compared with that of 1, S. aureus [fold]
38 | C/C=C/[C@H]1C=C[C@H]2C[C@H](C)CC[C@H]2[C@]1(C)C(=O)C1=C(O)[C@H](CO)N(C)C1=O [Compound 3, cis-equisetin] | 4

test system: not listed separately; assay: In vitro cytotoxicity, HL-60; assay type: cell-based; conditions: human, HL-60 cells (human promyelocytic leukemia cell line)
Description: as §1

Row | SMILES | IC50 [µM]
39 | C/C=C/[C@@H]1C=C[C@@H]2C[C@H](C)CC[C@H]2[C@]1(C)C(=O)C1=C(O)[C@H](CO)N(C)C1=O [Compound 1, equisetin] | 12
40 | C/C=C/C=C/[C@H]1C(C)=C[C@H]2C[C@@H](C)CC[C@@H]2[C@@]1(C)C(=O)C1=C(O)[C@@H](CO)N(C)C1=O [Compound 2, phomasetin] | 3.4
41 | C/C=C/[C@H]1C=C[C@H]2C[C@H](C)CC[C@H]2[C@]1(C)C(=O)C1=C(O)[C@H](CO)N(C)C1=O [Compound 3, cis-equisetin] | 14
42 | C/C=C/C=C/[C@@H]1C(C)=C[C@@H]2C[C@@H](C)CC[C@@H]2[C@@]1(C)C(=O)C1=C(O)[C@@H](CO)NC1=O [Compound 4, N-demethyl-cis-phomasetin] | 22

test system: mitochondrial respiration in HeLa cells; assay: Measurement of mitochondrial respiration (OCR/ECAR, Seahorse XFe96 extracellular flux analyzer); conditions: 6 min after sample treatment
Description: Changes in oxygen consumption rate (OCR) and extracellular acidification rate (ECAR) were measured using a Seahorse XFe96 analyzer (Agilent, CA, USA).
To confirm this, the effect of 1 on energy metabolism was evaluated using an extracellular flux analyzer, which can simultaneously measure two metabolic properties: oxygen consumption rate (OCR) for an indicative of OXPHOS and extracellular acidification rate (ECAR) for that of glycolysis [20].
Percentage changes in OCR and ECAR (relative to their respective baseline values) induced by test compounds were calculated from S14 Fig. Each data point represents the mean ± standard deviation value at 6 min after sample treatment (n = 3). Note that decreasing OCR and increasing ECAR is a typical phenotype characteristic to mitochondrial respiration inhibitors [20].
Real-time measurements of the OCR and ECAR in HeLa cells were performed after treating the cells with different concentrations of the test samples. To perform the Seahorse XF Cell Mito Stress Test, the cells were treated with oligomycin A (OMA, 1 μM), FCCP (0.125 μM), and rotenone/antimycin A (R/A, 1 μM each) at the indicated times. Data are mean ± s.d. (n = 3 technical replicates) from one representative experiment out of three independent experiments.

Row | SMILES | change in extracellular acidification rate (ECAR) | change in oxygen consumption rate (OCR)
43 | C/C=C/[C@@H]1C=C[C@@H]2C[C@H](C)CC[C@H]2[C@]1(C)C(=O)C1=C(O)[C@H](CO)N(C)C1=O [Compound 1, equisetin] | increase in ECAR | decrease in OCR
